The record followed here is patent US20250275995A1, “NICOTINAMIDE RIBOSIDE DOSAGE REGIMEN FOR TREATING PARKINSON'S DISEASE” (VESTLANDETS INNOVASJONSSELSKAP AS (VIS), priority 2022, published 2025).

The subject of the series is NAD metabolome. The series can be described thus: NR-SAFE: LC-MS metabolomics of whole blood and urine. Format: in vivo, human. As to the method: Sample analysis was carried out by MS-Omics (Vedbok, Denmark) as follows: Polar metabolite profiling of whole blood and urine was performed using a Thermo Scientific Vanquish LC coupled to Thermo Q Exactive HF MS. An electrospray ionization interface was used as ionization source. Analysis was performed in negative and positive ionization mode. The UPLC was performed using a slightly modified version of the protocol described by Hsiao et al. 2018^14. Peak areas were extracted using Compound Discoverer 3.3 (Thermo Scientific). 14 Hsiao, J. J., Potter, O. G., Chu, T. W. & Yin, H. Improved LC/MS Methods for the Analysis of Metal-Sensitive Analytes Using Medronic Acid as a Mobile Phase Additive. Anal Chem 90, 9457-9464 (2018).
Semi-polar metabolite analysis of whole blood was carried out using a Thermo Scientific Vanquish LC coupled to Orbitrap Exploris 240 MS, Thermo Fisher Scientific. An electrospray ionization interface was used as ionization source. Analysis was performed in positive and negative ionization mode under polarity switching. The UPLC was performed using a slightly modified version of the protocol described by Doneanu et al., 2011^15. Peak areas were extracted using Compound Discoverer 3.3 (Thermo Scientific). 15 Doneanu, C. E. UPLC/MS Monitoring of Water-Soluble Vitamin Bs in Cell Culture Media in Minutes (Application note). https://www.waters.com/waters/library.htm?locale=en US&lid=134636355 (2011).
Identification of compounds for both methods was performed at four levels; Level 1: identification by retention times (compared against in-house authentic standards), accurate mass (with an accepted deviation of 3 ppm), and MS/MS spectra; Level 2a: identification by retention times (compared against in-house authentic standards), accurate mass (with an accepted deviation of 3 ppm). Level 2b: identification by accurate mass (with an accepted deviation of 3 ppm), and MS/MS spectra, Level 3: identification by accurate mass alone (with an accepted deviation of 3 ppm).

[1] abbreviates: LC-MS, V1 to V7, 3000 mg NR daily.
Setting [2] is: LC-MS, V1 to V7, NR group, 3000 mg NR daily.

For `NC(=O)c1ccc[n+]([C@@H]2O[C@H](CO)[C@@H](O)[C@H]2O)c1` [NR, nicotinamide riboside], under setting [1], the “urine NAD-related metabolites (NAR, Nam, Me-Nam, Me-2-PY, Nam N-oxide)” value was “increase in several NAD-related metabolites”; the “whole blood ADP-ribose (ADPR)” value was “increase in NAD-derived signaling molecules such as ADP-ribose (ADPR)”; the “whole blood ATP, GTP, ADP, AMP, adenosine and GDP” value was “unchanged”; the “whole blood Nam, Nam N-oxide, Me-Nam, Me-2-PY” value is recorded as “increased as well”. Besides, under setting [1], the “whole blood nicotinamide mononucleotide (NMN)” value was “elevated levels” and the “whole blood nicotinic acid adenine dinucleotide (NAAD)” value is recorded as “elevated”. For the same compound, under setting [2], the “NR itself in urine” value is recorded as “did not change significantly” and the “NR itself in whole blood” value was “did not increase”. In addition, the “whole blood HCy, SAM, SAH, SAM/SAH ratio, methionine” value (LC-MS, V1 vs V7, 3000 mg NR daily) is on record as “did not detect a change”. Under “NR 3000 mg for 4 weeks”, the “depletion of the methyl-group pool” value is given as “does not cause depletion of the methyl-group pool”. For the same compound, the “whole blood NAD^+ and NADP^+ levels” value (targeted LC-MS, V1 to V7, 3000 mg NR daily) was “significant increase in whole blood NAD^+ and NADP^+ levels”. The “whole blood homocysteine (HCy)” value (targeted metabolomics, V1 vs V7, 3000 mg NR daily) is “did not show any HCy elevation”. Also, the “whole blood methionine levels” value (untargeted metabolomics, 3000 mg NR daily) is on record as “unaffected”. For the same compound, under “untargeted metabolomics, NR group, 3000 mg NR daily”, the whole blood betaine result is listed as “decreased slightly”.
